Source: patent US5578496A, “Detection of autoantibodies associated with the disease myasthenia gravis” (Board of Regents, Baylor College of Medicine, priority 1994, dated 1996)
Where a SMILES comes first, the peptide text is derived from it. Bridges are numbered along the chain shown (N, C = ends).

Key:
[1] = test system: experimental autoimmune myasthenia gravis (EAMG); experiment: Electromyography (repetitive nerve stimulation) for electrophysiological EAMG after immunization with Torpedo AChR; format: in vivo, C57/BL6 mice
Procedure: Six weeks old C57/BL6 mice were purchased from Charles River Breeding Laboratories (Wilmington, Mass.). Preimmune sera were obtained from the mice for use as controls in subsequent antibody binding assays. […] Then, on day 0, the mice were immunized subcutaneously in one hind footpad and intramuscularly in the same side shoulder with 20 μg of Torpedo AChR in 100 μl emulsion containing equal volumes of complete Freund's adjuvant and PBS. Thirty days later, the mice were immunized with a similar dose of the receptor in the opposite footpad and shoulder. On the 37th day, test bleeds were obtained from the mice for determination of the antibody titers. Electrophysiological studies were performed on the 38th and 39th days. Finally, the mice were sacrificed on the 40th day and lymph node cells were obtained for T cell studies. To document the electrophysiological evidence of EAMG, amplitudes of serial muscle action potentials were measured by electromyography (EMG) during the repetitive stimulation of the nerve in immunized mice, using the Mystro EMG system (TECA Corporation). A pair of wire electrodes were surgically implanted, encircling the sciatic nerve, two days before EMG. The nerve was stimulated through the implanted electrodes by 3 Hz trains of supramaximal electric current with a duration of 200 microseconds. The corresponding muscle action potentials were recorded with an electrode subcutaneously inserted over the gastrocnemius muscle. A reference electrode was placed at the ankle. Ether inhalation was used during the surgical and recording procedures. […] Students' t-test was used to analyze the differences of amplitude changes between the two groups. A typical myasthenic response of a greater than 10% decrement was considered to constitute an electrophysiological evidence of EAMG. The frequency of electrophysiological EAMG was calculated in each group and analyzed by chi-square test.

peptide α125-148 = experiment: Radioimmunoassay of anti-AChR antisera from pretreated mice: antibody binding to peptide α125-148; format: in vivo, C57/BL6 mice
Procedure: Six weeks old C57/BL6 mice were purchased from Charles River Breeding Laboratories (Wilmington, Mass.). Preimmune sera were obtained from the mice for use as controls in subsequent antibody binding assays. After 2-weeks rest, the mice were divided into three groups which received, at eleven, seven and three days before immunization with AChR, an intraperitoneal injection (5 μg in 25 μl of PBS [0.15M NaCl in 0.01M sodium phosphate buffer, pH 7.2]) of either the mPEG-(α125-148) conjugate (Group 1), mPEG-nonsense peptide conjugate (Group 2) or unaltered free peptide α125-148 (Group 3) (FIG. 5). Then, on day 0, the mice were immunized subcutaneously in one hind footpad and intramuscularly in the same side shoulder with 20 μg of Torpedo AChR in 100 μl emulsion containing equal volumes of complete Freund's adjuvant and PBS. Thirty days later, the mice were immunized with a similar dose of the receptor in the opposite footpad and shoulder. On the 37th day, test bleeds were obtained from the mice for determination of the antibody titers. Electrophysiological studies were performed on the 38th and 39th days. Finally, the mice were sacrificed on the 40th day and lymph node cells were obtained for T cell studies.
One mg of the synthetic peptide was dissolved in 50 μl dimethylformamide and then diluted with PBS to 25 μg/ml. A solution of Torpedo AChR in PBS was prepared to contain 2.5 μg/ml. Aliquots (50 μl/well) of the peptide or AChR solutions were added to a 96-well microtiter plate (Falcon Micro Test III flexible assay plate, Becton Dickinson, Oxcard, Calif.) and the plates were incubated at room temperature overnight. After washing 3 times with PBS, the plates were blocked with 0.25% bovine serum albumin (BSA [bovine serum albumin]) in PBS (50 μl/well) at 37° C. for 90 minutes. The plates were washed again 5 times with PBS and to each well was added 50 μl of the serum from AChR-immunized mice, pre-diluted with PBS containing 0.10% BSA, and the plates were covered and allowed to stand at room temperature overnight. After 5 washes with PBS, 50 μl of rabbit IgG antibodies (2.5 μg/ml) against mouse IgG and IgM (Accurate Chemical Scientific Corporation, Westbury, N.Y.) was added to each well and the plates were incubated at 37° C. for 3 hours. The plates were then washed 5 times with PBS and ^125 I-labeled protein A (2×10^5cpm in 50 μl of PBS-0.1% BSA) was added to each well. The plates were incubated for 3 hours at room temperature, after which they were washed and the wells were cut out and counted for bound radioactivity. Pre-immune serum samples, obtained from the mice prior to any experimental treatments, were used as controls to correct for non-specific binding.

[2] = test system: antibodies against human ACHR α chain peptides; experiment: Binding of anti-peptide antibodies to the peptides on Co-Bind plate; design: species or system mice; details: antisera diluted 1:500 (v/v) with PBS/0.05% casein; corrected for nonspecific binding to casein
Procedure: Anti-peptide antibodies were raised in outbred mice by immunization in the hind footpads of 50 μg of synthetic peptide in 100 μl emulsion prepared from equal volumes of PBS and Freund's complete adjuvant. The immunizations were done on day 1, day 15, day 30 and day 45. Rabbit immune IgG fractions with specificity against human IgG and human IgM and mouse IgG and IgM were obtained from DAKO Co. (DAKO-immunoglobulins a/s, Denmark) and Accurate Chemical Scientific Corp. (Westbury, N.Y.), respectively.
1.0 mg of peptide was dissolved in 5 μl of dimethylformamide and then diluted to 50 μg/ml with 0.15M NaCl in 0.01M sodium phosphate buffer, pH 7.2, containing 0.01% thimerosal (PBS). Aliquots of the peptide solution, were applied to wells of the 96-well Co-Bind plate. The plates were incubated at room temperature overnight with continuous gentle rocking. After washing three times with PBS, the wells were quenched (3 hrs., room temperature) with 0.2 ml of 1.0M glycine-NaOH, pH 7.2. After washing the wells three times with PBS, an aliquot (100 μl) of a 0.1% solution of casein in PBS were added to each well and the plates were incubated at 37° C. for 90 min to block the remaining reactive groups on the wells. The plates were then washed three times with PBS and incubated (37° C., 4 hrs) with 100 μl of plasma or mouse antiserum (1:200 or 1:500 dilution with PBS containing 0.1% casein). For binding to peptide α182-198, the plates were blocked with, and plasma were diluted in, 0.5% (instead of 0.1%) casein in PBS. After washing four times with PBS, the plates were incubated (4° C., overnight) with 100 μl of rabbit anti-human (IgG+IgM) or anti-mouse (IgG+IgM) (2.5 μg/ml) in PBS containing 0.1% casein. The plates were washed four times with PBS and incubated (3 hrs., room temperature) with ^125 I-labeled protein A (2×10^5 cpm) in 100 μl of PBS-0.1% casein. After washing five times with PBS, bound radioactivity was removed from the wells, by the addition of 100 μl of 5% SDS in 0.2N NaOH. The plates were allowed to stand for 20 min at room temperature and the solutions were then transferred quantitatively to small test tubes for counting. This procedure was repeated three times, and the solutions in each case were added to the respective tubes. The samples were counted on a Beckman 4000 gamma counter. The radioactivity bound by three unrelated proteins (casein, cytochrome C and bovine serum albumin) and a nonsense peptide (ESSGTGIESSGTGI) (Atassi et al. 1987) were used as controls to correct for nonspecific binding. It should be noted that in other experiments, in which the plates were blocked and all dilutions were made with PBS containing human adult hemoglobin or bovine serum albumin, the non-specific binding was considerably higher than when casein was used.
To confirm that the synthetic human AChR peptides can be coupled to Co-Bind plate, they were used to raise anti-peptide antibodies in mice. The peptides were bound onto the well of Co-Bind plates, followed by reaction with the respective anti-peptide antibody, pre-diluted 1:500 (v/v) with PBS/0.05% casein.

[3] = 5 μg i.p. at 11, 7 and 3 days before immunization with Torpedo AChR, EMG on days 38-39

| Compound | Antibody Binding to immunizing Peptide (CPM) [2] | also measured |
| --- | --- | --- |
| CC[N+](C)(C)c1cccc(O)c1 [edrophonium chloride, reference compound] | – | decremental amplitude after edrophonium ([1]; EAMG-positive mouse with -33% decrement, 3 minutes after i.p. injection of 250 μg): -13%; reversibility of typical myasthenic decremental response ([1]; i.p. injection of 250 μg): reversible |
| CC[C@H](C)[C@H](NC(=O)CNC(=O)[C@H](CC(C)C)NC(=O)[C@H](CCCCN)NC(=O)[C@H](CCSC)NC(=O)[C@@H](NC(=O)[C@@H]1CSSC[C@H](NC(=O)[C@H](Cc2ccc(O)cc2)NC(=O)[C@H](CO)NC(=O)[C@@H](N)CCCCN)C(=O)N[C@@H](CCC(=O)O)C(=O)N[C@@H]([C@@H](C)CC)C(=O)N[C@@H]([C@@H](C)CC)C(=O)N[C@@H](C(C)C)C(=O)N[C@@H]([C@@H](C)O)C(=O)N[C@@H](Cc2c[nH]cn2)C(=O)N[C@@H](Cc2ccccc2)C(=O)N2CCC[C@H]2C(=O)N[C@@H](Cc2ccccc2)C(=O)N[C@@H](CC(=O)O)C(=O)N[C@@H](CCC(N)=O)C(=O)N[C@@H](CCC(N)=O)C(=O)N[C@@H](CC(N)=O)C(=O)N1)[C@@H](C)O)C(=O)O [α125-148] (H-KSYCEIIVTHFPFDQQNCTMKLGI-OH; disulfide 4-18) | – | mean amplitude change of muscle action potentials [1, 3]: -15.9%; mice showing a decremental response greater than 10% [1, 3]: 56%; antibody binding to peptide α125-148, mean net cpm ± standard deviation (peptide α125-148; anti-AChR antisera of individual mice, day 37 bleeds): 3626+2214 cpm; antibody binding to peptide α125-148, pooled antisera in serial dilutions (peptide α125-148; pooled serum of each group, various dilutions): consistently greater than the other two controls; antibodies bound to peptide α125-148 in anti-AChR antisera (peptide α125-148; pretreatment prior to immunization with Torpedo AChR): no decrease |
| α1-16: synthetic peptide, residues α1-16 of human AChR α-chain (SEHETRLVAKLFKDYS) | 78940 CPM | – |
| α23-38: synthetic peptide, residues α23-38 of human AChR α-chain (EDHRQVVEVTVGLQLI) | 71893 CPM | – |
| α34-49: synthetic peptide, residues α34-49 of human AChR α-chain (GLQLIQLINVDEVNQI) | 62360 CPM | – |
| α45-60: synthetic peptide, residues α45-60 of human AChR α-chain (EVNQIVTTNVRLKQQW) | 82404 CPM | – |
| α56-71: synthetic peptide, residues α56-71 of human AChR α-chain (LKQQWVDYNLKWNPDD) | 36038 CPM | – |
| α67-82: synthetic peptide, residues α67-82 of human AChR α-chain (WNPDDYGGVKKIHIPS) | 22884 CPM | – |
| α78-93: synthetic peptide, residues α78-93 of human AChR α-chain (IHIPSEKIWRPDLVLY) | 4433 CPM | – |
| α89-104: synthetic peptide, residues α89-104 of human AChR α-chain (DLVLYNNADGDFAIVK) | 29199 CPM | – |
| α100-115: synthetic peptide, residues α100-115 of human AChR α-chain (FAIVKFTKVLLQYTGH) | 57717 CPM | – |
| α134-150: synthetic peptide, residues α134-150 of human AChR α-chain (HFPFDEQNGSMKLGTWT) | 52077 CPM | – |
| α146-162: synthetic peptide, residues α146-162 of human AChR α-chain (LGTWTYDGSVVAINPES) | 13649 CPM | – |
| α158-174: synthetic peptide, residues α158-174 of human AChR α-chain (INPESDQPDLSNFMESG) | 14799 CPM | – |
| α170-186: synthetic peptide, residues α170-186 of human AChR α-chain (FMESGEWVIKESRGWKH) | 71323 CPM | – |
| α194-210: synthetic peptide, residues α194-210 of human AChR α-chain (PDTPYLDITYHFVMQRL) | 66804 CPM | – |
